In PubChem BioAssay AID1259407 (Chemical Carcinogenesis Research Information System (CCRIS), 2018):
Active and inactive are the calls of the source. How the calls were made is not given here.

Test system: CCRIS mutagenicity, Ames/micronucleus/aberration tests
Assay: CCRIS mutagenicity studies
[1] = Test System: AMES SALMONELLA TYPHIMURIUM, Strain/Indicator: TA98, Metabolic Activation: NONE, Method: STANDARD PLATE
[2] = Test System: AMES SALMONELLA TYPHIMURIUM, Strain/Indicator: TA98, Metabolic Activation: RAT, LIVER, S-9, AROCLOR 1254, Method: STANDARD PLATE
[3] = Test System: AMES SALMONELLA TYPHIMURIUM, Strain/Indicator: TA100, Metabolic Activation: NONE, Method: STANDARD PLATE
[4] = Test System: AMES SALMONELLA TYPHIMURIUM, Strain/Indicator: TA100, Metabolic Activation: RAT, LIVER, S-9, AROCLOR 1254, Method: STANDARD PLATE
[5] = Test System: AMES SALMONELLA TYPHIMURIUM, Strain/Indicator: TA98, Metabolic Activation: NONE, Method: PREINCUBATION

In the case of `CCCCCCCCCCOC[N+](C)(C)Cc1ccccc1`, the mutagenic call (Test System: BACILLUS SUBTILIS, Strain/Indicator: H17/REC, Metabolic Activation: NONE, Method: STANDARD PLATE) is reported as “inactive; negative” and the mutagenic call (Test System: BACILLUS SUBTILIS, Strain/Indicator: M45, Metabolic Activation: NONE, Method: STANDARD PLATE) is reported as “inactive; negative”.
With `Nc1ccc2cc(S(=O)(=O)O)c(N=Nc3ccc(N=Nc4ccccc4)cc3OCCO)c(O)c2c1` the mutagenic call [1] was “inactive; negative”, the mutagenic call [2] was “active; positive” and the mutagenic call [3] was “inactive; negative”. For the same compound, the mutagenic call [4] was “active; positive”, the mutagenic call (Test System: AMES SALMONELLA TYPHIMURIUM, Strain/Indicator: TA1538, Metabolic Activation: NONE, Method: STANDARD PLATE) was “inactive; negative” and the mutagenic call (Test System: AMES SALMONELLA TYPHIMURIUM, Strain/Indicator: TA1538, Metabolic Activation: RAT, LIVER, S-9, AROCLOR 1254, Method: STANDARD PLATE) was “active; positive”.
`Nc1nc2c(ncn2COC(CO)CO)c(=O)[nH]1` was tested, and the mutagenic call (End Point: IN VITRO CHROMOSOMAL ABERRATIONS, Test System: CHO CELLS (CHO-HSVTK), Metabolic Activation: NONE) was “active; positive (structural changes); concentration chosen also induced apoptosis”.
`ClCc1ccc2ccc3cccc4ccc1c2c34` was tested, and the mutagenic call (Test System: AMES SALMONELLA TYPHIMURIUM, Strain/Indicator: TA98, Metabolic Activation: NONE) was “active; positive”, the mutagenic call [5] was “active; positive” and the mutagenic call [1] was “active; positive”. For the same compound, the mutagenic call [3] was “active; positive”.
`C=C(C)C(=O)OCC(C)C` was tested, and the mutagenic call (Test System: AMES SALMONELLA TYPHIMURIUM, Strain/Indicator: TA98, Metabolic Activation: HAMSTER, LIVER, S-9, AROCLOR 1254 (10%), Method: PREINCUBATION) was “inactive; negative”, the mutagenic call [5] was “inactive; negative” and the mutagenic call (Test System: AMES SALMONELLA TYPHIMURIUM, Strain/Indicator: TA98, Metabolic Activation: RAT, LIVER, S-9, AROCLOR 1254 (10%), Method: PREINCUBATION) was “inactive; negative”. For the same compound, the mutagenic call (Test System: AMES SALMONELLA TYPHIMURIUM, Strain/Indicator: TA100, Metabolic Activation: HAMSTER, LIVER, S-9, AROCLOR 1254 (10%), Method: PREINCUBATION) was “inactive; negative”, the mutagenic call (Test System: AMES SALMONELLA TYPHIMURIUM, Strain/Indicator: TA100, Metabolic Activation: NONE, Method: PREINCUBATION) was “inactive; negative” and the mutagenic call (Test System: AMES SALMONELLA TYPHIMURIUM, Strain/Indicator: TA100, Metabolic Activation: RAT, LIVER, S-9, AROCLOR 1254 (10%), Method: PREINCUBATION) was “inactive; negative”. The mutagenic call (Test System: AMES SALMONELLA TYPHIMURIUM, Strain/Indicator: TA1535, Metabolic Activation: HAMSTER, LIVER, S-9, AROCLOR 1254 (10%), Method: PREINCUBATION) was “inactive; negative”, the mutagenic call (Test System: AMES SALMONELLA TYPHIMURIUM, Strain/Indicator: TA1535, Metabolic Activation: NONE, Method: PREINCUBATION) was “inactive; negative” and the mutagenic call (Test System: AMES SALMONELLA TYPHIMURIUM, Strain/Indicator: TA1535, Metabolic Activation: RAT, LIVER, S-9, AROCLOR 1254 (10%), Method: PREINCUBATION) was “inactive; negative”. The mutagenic call (Test System: AMES SALMONELLA TYPHIMURIUM, Strain/Indicator: TA1537, Metabolic Activation: HAMSTER, LIVER, S-9, AROCLOR 1254 (10%), Method: PREINCUBATION) was “inactive; negative”, the mutagenic call (Test System: AMES SALMONELLA TYPHIMURIUM, Strain/Indicator: TA1537, Metabolic Activation: NONE, Method: PREINCUBATION) was “inactive; negative” and the mutagenic call (Test System: AMES SALMONELLA TYPHIMURIUM, Strain/Indicator: TA1537, Metabolic Activation: RAT, LIVER, S-9, AROCLOR 1254 (10%), Method: PREINCUBATION) was “inactive; negative”.
In the case of `C=C(C)C1CCC2(C)OC2C1` (centres undefined), the mutagenic call [3] is reported as “inactive; negative”, the mutagenic call [4] is reported as “inactive; negative” and the mutagenic call (Test System: AMES SALMONELLA TYPHIMURIUM, Strain/Indicator: TA1535, Metabolic Activation: NONE, Method: STANDARD PLATE) is reported as “inactive; negative”. For the same compound, the mutagenic call (Test System: AMES SALMONELLA TYPHIMURIUM, Strain/Indicator: TA1535, Metabolic Activation: RAT, LIVER, S-9, AROCLOR 1254, Method: STANDARD PLATE) was “inactive; negative” and the mutagenic call (Test System: UDS RAT HEPATOCYTES, Strain/Indicator: THY INCORP, Metabolic Activation: NONE) was “inactive; negative”.
`OC1=c2c(O)cc3cccc4ccc(c2c43)C23CCCCC12O3` (centres undefined) was tested, and the mutagenic call (Test System: CHINESE HAMSTER V-79, Strain/Indicator: V-79/8-AZAGUANINE, Metabolic Activation: NONE, Method: STANDARD PLATE) was “active; positive”.
For `O=C(O)COc1ccc(Cl)cc1`, the mutagenic call (Test System: AMES SALMONELLA TYPHIMURIUM, Strain/Indicator: TA97, Metabolic Activation: NONE, Method: STANDARD PLATE) was “inactive; negative”, the mutagenic call (Test System: AMES SALMONELLA TYPHIMURIUM, Strain/Indicator: TA97, Metabolic Activation: RAT, LIVER, S-9, AROCLOR 1254, Method: STANDARD PLATE) was “inactive; negative” and the mutagenic call [1] was “inactive; negative”. The mutagenic call [2] was “inactive; negative”, the mutagenic call [3] was “inactive; negative” and the mutagenic call [4] was “inactive; negative”. The mutagenic call (Test System: AMES SALMONELLA TYPHIMURIUM, Strain/Indicator: TA102, Metabolic Activation: NONE, Method: STANDARD PLATE) was “inactive; negative” and the mutagenic call (Test System: AMES SALMONELLA TYPHIMURIUM, Strain/Indicator: TA102, Metabolic Activation: RAT, LIVER, S-9, AROCLOR 1254, Method: STANDARD PLATE) was “inactive; negative”.
